Earlier results as cited in US6951873B1, “Methods for treating age-related behavioral disorders in companion animals” (priority 1999, dated 2005).

System: aged-impaired dogs
Details: spatial memory model sensitive to age-dependent cognitive impairment

## C#CCN(C)[C@H](C)Cc1ccccc1.Cl [selegiline chloride]
  Performance of aged-impaired dogs on this test: improved
